Data reported in article PMC6211316, “Synthesis and biological evaluation of 3-arylcoumarin derivatives as potential anti-diabetic agents” (Journal of Enzyme Inhibition and Medicinal Chemistry, 2018).

Tests used:
AGEs formation = experiment: In vitro inhibitory activity of AGEs formation (bovine serum albumin/glucose); type: biochemical; conditions: mean ± SD (n = 3)
Experimental: To prepare the AGEs reaction solution, 10 mg/mL of bovine serum albumin in 50 mM PBS (pH 7.4) was added to 0.2 M glucose, and 0.02% sodium azide was added to prevent bacterial growth. The reaction mixture (3.0 ml) was then mixed with various concentrations (0.5–1000 μg/mL) of the target compounds (1.0 ml) dissolved in DMSO. After incubating at 37 °C for 14 d, the fluorescence intensity of AGE was determined by a fluorospectrophotometer (PE, USA) with excitation and emission wavelengths at 350 nm and 420 nm, respectively. All experiments were run in triplicate. Aminoguanidine hydrochloride was used as a reference compound. The inhibition rate of AGEs formation and the IC50 value of each sample were calculated according to the formula. Inhibition rate %={[(AC−AB)−(AS−ASB)]/(AC−AB)}×100% where AC is the absorbance of control group(1.0 ml glucose +1.0 ml bovine serum albumin +1.0 ml sodium azide +1.0 ml DMSO); AB is the absorbance of blank group(1.0 ml PBS +1.0 ml bovine serum albumin +1.0 ml sodium azide +1.0 ml DMSO); AS is the absorbance of sample group (1.0 ml glucose +1.0 ml bovine serum albumin +1.0 ml sodium azide +1.0 ml target compound solution or Aminoguanidine hydrochloride solution); ASB is the absorbance of sample blank group (1.0 ml PBS +1.0 ml bovine serum albumin +1.0 ml sodium azide +1.0 ml target compound solution or Aminoguanidine hydrochloride solution).

[1] = test system: STZ-induced hyperglycemic mice; design: method as in PMID 20040119; conditions: 100 mg/kg/day; cited from earlier work
α-Glucosidase = target: T1, α-Glucosidase (Saccharomyces cerevisiae, UniProt P53341); experiment: biochemical; type: biochemical
T1 construct: purchased Sigma Aldrich G0660-750UN
T1 sequence (P53341 whole entry): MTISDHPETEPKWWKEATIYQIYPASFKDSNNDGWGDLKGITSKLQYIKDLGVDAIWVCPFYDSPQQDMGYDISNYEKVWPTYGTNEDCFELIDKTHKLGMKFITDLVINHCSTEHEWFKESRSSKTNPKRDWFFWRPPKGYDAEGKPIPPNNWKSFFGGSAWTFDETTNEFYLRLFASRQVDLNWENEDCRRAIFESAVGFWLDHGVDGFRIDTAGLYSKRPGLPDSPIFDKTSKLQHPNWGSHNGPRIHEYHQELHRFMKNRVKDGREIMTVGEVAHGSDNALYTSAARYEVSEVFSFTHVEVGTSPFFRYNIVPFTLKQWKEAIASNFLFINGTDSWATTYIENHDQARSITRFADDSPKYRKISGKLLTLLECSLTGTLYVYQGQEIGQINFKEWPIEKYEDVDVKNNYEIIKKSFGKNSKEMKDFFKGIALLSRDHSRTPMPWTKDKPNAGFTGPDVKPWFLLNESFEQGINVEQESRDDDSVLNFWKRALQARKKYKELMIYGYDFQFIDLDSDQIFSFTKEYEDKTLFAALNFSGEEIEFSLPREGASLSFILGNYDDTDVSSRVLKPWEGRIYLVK
Experimental: α-Glucosidase (G0660-750UN, Sigma Aldrich) and 4-Nitrophenyl α-D-glucopyranoside (PNPG, Macklin) were dissolved in phosphate buffer (pH 6.8, 100 mM), and the test compounds were dissolved in DMSO solution. The experiment was divided into blank group, control group, sample blank group, and sample group. The reagents were loaded in 96-well plates at the dose of the table (Table 8). The solution was bathed in 37 °C water for 10 min, and then enzyme solution was added. After reaction at 37 °C for 20 min, 70 μL Na2CO3 solution ([…]) was added to stop the reaction. All experiments were run in triplicate. […] Since PNPG can produce glucose and p-Nitrophenol (PNP) under the action of α-glucosidase, PNP has the greatest absorption at 405 nm. The absorbance was determined by the microplate reader, and the inhibition rate of α-glucosidase and the IC50 value of each sample were calculated according to the formula. Inhibition rate %={[(AC−AB)−(AS−ASB)]/(AC−AB)}×100% where AC is the absorbance of control group; AB is the absorbance of blank group; AS is the absorbance of sample group; ASB is the absorbance of sample blank group.

[2] = Oral toxicity to mice (Lorke's method); conditions: both sexes, mouse, in vivo, Kunming mice, observed 14 days
Experimental: With reference to Lorke’s method, kunming mice were used as targets to estimate the oral toxicity of each compound to mice. We select compounds 11, 17, 25, 28, and 35 at concentrations of 10, 100, and 1000 mg/kg to test their oral toxicity in the first phase, and 1600, 2900, and 5000 mg/kg at the second phase.
Experiments were performed on Kunming mice (male and female half, bw range, 25–30 g). Mice were housed in a climate and light controlled room with a 12 h light/dark cycle. Twelve hours before experiments, food was withheld, but animals had free access to drinking water. The compounds were suspended in vehicle (Tween-80, 0.2% in saline). The concentrations were adjusted to orally administrate 0.2 ml/10 g of bw. Mice were treated in two phases. In the first, intragastric doses of 10, 100 and 1000 mg/kg of bw of compounds were administered. On the second, the doses were adjusted to 1600, 2900, and 5000 mg/kg of bw of compounds. In both phases, mice were observed daily in a period of 14 days for mortality, toxic effects and/or changes in behavioural pattern. At the end of the experiments, the mice were sacrificed in a CO2 chamber.

[3] = hydroxyl radical scavenging; conditions: mean ± SD (n = 3), read-out: OH IC50 Value
Experimental: The ability of the target compounds and vitamin C to scavenge the hydroxyl radical was evaluated with method described by Ismaili et al.[29] with slight modifications. In test tube, 1.0 ml H2O2 solution (0.03%), 1.0 ml FeSO4 solution (2 mmol.L^−1), 1.0 ml salicylic acid solution (10 mmol.L^−1) and 1.0 ml of 3-arylcoumarins and standard water solution with different concentration (0.4–2.0 mg/mL) were mixed. Finally, 1.0 ml H2O2 solution (0.03%) was added to this mixture to start the reaction. Solutions were kept at 37 °C. After 30 min, the absorbance was measured at 510 nm against the reagent blank, where the distilled water was substituted for the H2O2 solution. The percentage of OH scavenging by target compounds and vitamin C was calculated the following equation: OH scavenging effect (%)=[A0−(A1−A2)]/A0×100% where A0 is the absorbance of 1.0 ml distilled water +1.0 ml H2O2 + 1.0 ml FeSO4 + 1.0 ml salicylic acid +1.0 ml H2O2; A1 is the absorbance of 1.0 ml 3-arylcoumarins or standard +1.0 ml H2O2 + 1.0 ml FeSO4 + 1.0 ml salicylic acid +1.0 ml H2O2; A2 is the absorbance of 1.0 ml 3-arylcoumarins or standard +1.0 ml H2O2 + 1.0 ml FeSO4 + 1.0 ml absolute absolute ethanol +1.0 ml H2O2.

[4] = DPPH free radical scavenging; conditions: mean ± SD (n = 3)
Experimental: The effect of target compounds and vitamin C to scavenge the DPPH free radical was evaluated with the method described by Villano et al.[43] with slight modifications.
Two millilitres of different concentrations of the sample solution was added to 2.0 ml of DPPH solution (0.04 mg/mL), shaken and allowed to react at room temperature for 30 min. The absorbance value was measured at 517 nm with an ultraviolet-visible spectrophotometer. The blank reference cuvette contained absolute ethanol. All measurements were performed in triplicate. IC50 values were calculated. The percentage of DPPH radical scavenging rate of the target compound is calculated as follows: DPPH free radical scavenging effect (%)=[A0−(A1−A2)]/A0×100% where A0 is the absorbance of 2.0 ml DPPH solution +2.0 ml absolute ethanol; A1 is the absorbance of 2.0 ml DPPH solution +2.0 ml 3-arylcoumarins solution or standard; A2 is the absorbance of 2.0 ml 3-arylcoumarins solution or standard +2.0 ml absolute ethanol.

STZ-diabetic mice = experiment: Acute hypoglycemic assay in STZ-diabetic mice; type: in vivo; conditions: STZ-diabetics mice
Experimental: Type II diabetes mellitus was induced in mice by a single intraperitoneal injection of freshly prepared STZ (Sigma Aldrich) dissolved in 0.1M citrate buffer, pH 4.5, in a volume of 110 mg/kg of bw. After 7 days of STZ administration, blood glucose levels of each mouse were determined. Mice with blood glucose levels higher than 11 mM were considered diabetic and were included in the study.
STZ-induced diabetic mice and normal mice were placed in single cages with wire-net floors and deprived of food for 12 h before experimentation but allowed free access to tap water throughout. The compounds (at the doses of 10, 30, and 100 mg/kg of bw) were suspended in 0.05% Tween-80 in saline solution. Glibenclamide (10 mg/kg of bw) was suspended in the same vehicle. The target compounds were freshly prepared immediately before experimentation and administered by the intragastrical route at the doses of 10 ml/kg of bw. Control mice received only the vehicle (0.05% Tween-80 in saline solution) by the same route. Blood glucose levels were measured at 0, 1.5, 3, 5, 7, and 9 h after drugs administration.

mice = test system: mice; design: method as in PMID 17360155; conditions: cited from earlier work

In the case of `N=C(N)NN` [AG, amino guanidine, reference compound], the IC50 (AGEs formation) is given as 270 ± 7.19 µM and the “effect on STZ-induced hyperglycemic mice” value [1] is given as “no significant effect”.

With `O=c1oc2cc(O)cc(O)c2cc1-c1ccc(O)cc1` [Compound 28, 5,7-Dihydroxy-3-(4-hydroxyphenyl)-coumarin] the “α-glucosidase inhibitory activity (in words)” value (α-Glucosidase; in vitro) was “moderate to excellent inhibitory activity”, the IC50 (α-Glucosidase; mean ± SD (n = 3), read-out: α-Glucosidase inhibitory activity IC50 Value) was 1.37 ± 0.15 µM and the LD50 at 14 days [2] was over 5000 mg/kg. The IC50 [3] was over 1000 µM, the IC50 [4] was 41.51 ± 0.18 µM and the Blood glucose concentration (STZ-diabetic mice; 10 mg/kg of bw per os, 0h) was 15.3 ± 3.8 mM. For the same molecule, the “% Variation of glycemia” value (STZ-diabetic mice; 10 mg/kg of bw per os, 1.5h) was “(−3.27) %”, the Blood glucose concentration (STZ-diabetic mice; 10 mg/kg of bw per os, 1.5h) was 14.8 ± 5.8 mM and the “% Variation of glycemia” value (STZ-diabetic mice; 10 mg/kg of bw per os, 3h) was “(−25.49) %”. The Blood glucose concentration (STZ-diabetic mice; 10 mg/kg of bw per os, 3h) was 11.4 ± 4.2 mM, the “% Variation of glycemia” value (STZ-diabetic mice; 10 mg/kg of bw per os, 5h) was “(−41.83) %” and the Blood glucose concentration (STZ-diabetic mice; 10 mg/kg of bw per os, 5h) was 8.9 ± 2.6 mM. For the same molecule, the “% Variation of glycemia” value (STZ-diabetic mice; 10 mg/kg of bw per os, 7h) was “(−58.17) %”, the Blood glucose concentration (STZ-diabetic mice; 10 mg/kg of bw per os, 7h) was 6.4 ± 1.6 mM and the “% Variation of glycemia” value (STZ-diabetic mice; 10 mg/kg of bw per os, 9h) was “(−54.25) %”. The Blood glucose concentration (STZ-diabetic mice; 10 mg/kg of bw per os, 9h) was 7.0 ± 2.4 mM, the Blood glucose concentration (STZ-diabetic mice; 30 mg/kg of bw per os, 0h) was 18.2 ± 6.7 mM and the “% Variation of glycemia” value (STZ-diabetic mice; 30 mg/kg of bw per os, 1.5h) was “(−18.13) %”. The Blood glucose concentration (STZ-diabetic mice; 30 mg/kg of bw per os, 1.5h) was 14.9 ± 6.6 mM, the “% Variation of glycemia” value (STZ-diabetic mice; 30 mg/kg of bw per os, 3h) was “(−25.82) %” and the Blood glucose concentration (STZ-diabetic mice; 30 mg/kg of bw per os, 3h) was 13.5 ± 6.1 mM. The “% Variation of glycemia” value (STZ-diabetic mice; 30 mg/kg of bw per os, 5h) was “(−30.22) %”, the Blood glucose concentration (STZ-diabetic mice; 30 mg/kg of bw per os, 5h) was 12.7 ± 6.7 mM and the “% Variation of glycemia” value (STZ-diabetic mice; 30 mg/kg of bw per os, 7h) was “(−43.41) %”. The Blood glucose concentration (STZ-diabetic mice; 30 mg/kg of bw per os, 7h) was 10.3 ± 5.6 mM, the “% Variation of glycemia” value (STZ-diabetic mice; 30 mg/kg of bw per os, 9h) was “(−59.89) %” and the Blood glucose concentration (STZ-diabetic mice; 30 mg/kg of bw per os, 9h) was 7.3 ± 4.5 mM. The Blood glucose concentration (STZ-diabetic mice; 100 mg/kg of bw per os, 0h) was 18.2 ± 4.1 mM, the “% Variation of glycemia” value (STZ-diabetic mice; 100 mg/kg of bw per os, 1.5h) was “(−4.95) %” and the Blood glucose concentration (STZ-diabetic mice; 100 mg/kg of bw per os, 1.5h) was 17.3 ± 6.7 mM. For the same molecule, the “% Variation of glycemia” value (STZ-diabetic mice; 100 mg/kg of bw per os, 3h) was “(−28.57) %”, the Blood glucose concentration (STZ-diabetic mice; 100 mg/kg of bw per os, 3h) was 13.0 ± 6.6 mM and the “% Variation of glycemia” value (STZ-diabetic mice; 100 mg/kg of bw per os, 5h) was “(−39.56) %”. For the same molecule, the Blood glucose concentration (STZ-diabetic mice; 100 mg/kg of bw per os, 5h) was 11.0 ± 6.4 mM, the “% Variation of glycemia” value (STZ-diabetic mice; 100 mg/kg of bw per os, 7h) was “(−35.17) %” and the Blood glucose concentration (STZ-diabetic mice; 100 mg/kg of bw per os, 7h) was 11.8 ± 6.0 mM. The “% Variation of glycemia” value (STZ-diabetic mice; 100 mg/kg of bw per os, 9h) was “(−43.96) %” and the Blood glucose concentration (STZ-diabetic mice; 100 mg/kg of bw per os, 9h) was 10.2 ± 4.6 mM.

In the case of `NCCS(=O)(=O)O` [taurine], the “protection against STZ-induced elevation in the plasma glucose levels” value (mice) is listed as “only a marginal to moderate protection”.

For `O=C1O[C@H]([C@@H](O)CO)C(O)=C1O` [Vitaminc, Vitamin C, reference compound], the IC50 [3] is listed as 788 ± 15.7 µM, the “protection against STZ-induced elevation in the plasma glucose levels” value (mice) is listed as “only a marginal to moderate protection” and the IC50 [4] is listed as 19.6 ± 1.88 µM. It also gave an IC50 ([4]; listed as Vitamin C) of 34.9 ± 0.85 µM.
